# Reference: patent publication US20070219238A1 (priority 2004, published 2007)
# Read-outs that look alike come from different tables or passages of the source.
# Test system: Phytophthora infestans
# Format: in vivo
# Details: individual active compound, potted tomato plants, protective, evaluated after 6 days
SMILES,Efficacy in % of the untreated control (50 ppm in the spray liquor),Efficacy in % of the untreated control (100 ppm in the spray liquor)
"[Cu+2].[OH-].[OH-] [II-3, copper hydroxide]",11%,22%
"[Cl-].[Cu+2].[Cu+2].[OH-].[OH-].[OH-] [II-1, copper oxychloride]",0%,22%
CC1CCN(c2c(-c3c(F)cccc3Cl)c(Cl)nc3ncnn23)CC1 [comparative compound A],0%,–
"CC1CCN(c2c(-c3c(F)cc(F)cc3F)c(Cl)nc3ncnn23)CC1 [I, 5-chloro-7-(4-methylpiperidin-1-yl)-6-(2,4,6-trifluorophenyl)[1,2,4]triazolo [1,5-a]pyrimidine]",0%,–
C[C@H](Nc1c(-c2c(F)cc(F)cc2F)c(Cl)nc2ncnn12)C(F)(F)F [comparative compound B],0%,–
"O=C([O-])[O-].[Cu+2].[Cu+2].[OH-].[OH-] [II-2, (basic) copper carbonate]",0%,11%
